1 substance from publication PMC11187126, “Structure and dynamics of the pyroglutamylated RF-amide peptide QRFP receptor GPR103” (Nature Communications, 2024) can be followed below.

Where two headings read alike, the source gives them in different places. No end group written: not given here.

In this experiment the target is T1, GPR103 L14N-termA (Homo sapiens, UniProt Q96P65, L14A).
T1 construct: we used human full-length QRFPR-encoding plasmids; expressed in transfected cells; host or cells: HEK293 cells, pCAGGS vector
T1 sequence (Q96P65 1-431 L14A): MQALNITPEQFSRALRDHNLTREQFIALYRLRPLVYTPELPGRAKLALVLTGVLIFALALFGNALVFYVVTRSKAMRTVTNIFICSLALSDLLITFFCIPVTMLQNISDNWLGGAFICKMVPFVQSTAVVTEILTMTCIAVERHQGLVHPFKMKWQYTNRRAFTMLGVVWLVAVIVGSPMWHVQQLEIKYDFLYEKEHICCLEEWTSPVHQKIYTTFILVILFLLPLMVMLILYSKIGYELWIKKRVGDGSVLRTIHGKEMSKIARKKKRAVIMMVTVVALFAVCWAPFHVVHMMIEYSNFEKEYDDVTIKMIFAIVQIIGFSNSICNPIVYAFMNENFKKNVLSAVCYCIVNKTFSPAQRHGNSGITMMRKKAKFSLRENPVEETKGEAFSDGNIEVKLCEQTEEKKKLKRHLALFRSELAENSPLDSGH
In words: TGFα shedding assay; Exp. level WT (1:5). Type of experiment: cell-based. The procedure:
For the TGFα shedding assay and the flow cytometry analysis, we used human full-length QRFPR-encoding plasmids. Specifically, GPR103 was N-terminally modified with an HA signal sequence followed by a FLAG epitope and then a flexible linker ([…]; the FLAG epitope is underlined) and inserted into the pCAGGS vector. Plasmid encoding GPR103 mutants were generated using Quickchange Site-Directed Mutagensis kit (Agilent).
The TGFα shedding assay was performed as described previously with minor modifications. Plasmid transfection was performed in a 6-well plate with a mixture of 500 ng (per well in a 6-well plate) AP-TGFα-encoding plasmid and 200 ng GPR103-encoding plasmid. After 1-day culture, the transfected cells were harvested by trypsinization, pelleted by centrifugation at 190 × g for 5 min, and washed once with 5 mM HEPES (pH 7.4)-containing Hank’s Balanced Salt Solution (HBSS). After centrifugation, the cells were resuspended in 8 mL of the HEPES-containing HBSS. The cell suspension was seeded in a 96-well culture plate (cell plate) at a volume of 90 μL (per well hereafter) and incubated in a 37 °C incubator with 5% CO2 for 30 min. […] After spinning the cell plates at 190 × g for 2 min, 80 μL of conditioned media was transferred to an empty 96-well plate (conditioned media (CM) plate). Then, 80 μL of AP reaction solution (10 mM p-nitrophenylphosphate (p-NPP), 120 mM Tris-HCl (pH 9.5), 40 mM NaCl, and 10 mM MgCl2) was dispensed into the cell plates and the CM plates. Absorbance at 405 nm of the plates was measured using a microplate reader (SpectraMax 340 PC384, Molecular Devices) before and after 1-h incubation at room temperature. Ligand-induced AP-TGFα release was calculated by subtracting spontaneous AP-TGFα release signal from ligand-induced AP-TGFα release signal. The AP-TGFα release signals were fitted to a four-parameter sigmoidal concentration–response curve, using the Prism 10 software (GraphPad Prism). For each replicate experiment, the pEC50 parameter (negative logarithmic values of EC50 values) of the individual GPR103 mutants were normalized to that of the wild-type GPR103 performed in parallel, and resulting ∆pEC50 values were used to denote ligand response activity of the mutants. […]
Exp. le vel: WT (1:5 0)Exp. le vel: WT (1:5 0)Exp. le vel: WT (1:5 0)Exp. le vel: WT (1:2 0)Exp. le vel: WT (1:2 0)Exp. le vel: WT (1:1 0) […]
L1 4N - t e r mA F2 5N - t e r mA I 2 6N - t e r mA Y 2 9N - t e r mA C 9 82 .5 7A T10 22 .6 1A Exp . l eve l: WT (1 :5)Exp . l evel : >WT (1 :1)Exp. le vel: WT (1:2 0)Exp. le vel: WT (1:2 0)Exp. le vel: WT (1:5 0)Exp . l eve l: WT (1 :1) […]
Exp. le vel: WT (1:1 0)Exp. le vel: WT (1:2 0) C 1 1 83 .2 5AExp. le vel: WT (1:5 0)Exp. le vel: WT (1:5 0)Exp. le vel: WT (1:2 0)Exp . l eve l: WT (1 :5) […]
Exp. le vel: WT (1:5 0)Exp. le vel: WT (1:1 0)Exp. le vel: WT (1:5 0) E203ECL2AExp . l evel : >WT (1 :1)Exp. le vel: WT (1:5 0)Exp. le vel: WT (1:5 0) […]
Exp . l eve l: WT (1 :1) F28Exp. le vel: WT (1:5 0) C 2 8 56 .4 7AExp. le vel: WT (1:2 0) WExp. le vel: WT (1:2 0) F28Exp. le vel: WT (1:5 0)Exp . l evel : >WT (1 :1) […]
Exp. le vel: WT (1:5 0)Exp. le vel: WT (1:5 0) C 3 2 77 .4 8AExp . l eve l: WT (1 :5)Exp . l evel : >WT (1 :1)Exp . l evel : >WT (1 :1) […]
Suppl eme nt ary Figure 1 | Mutational analysis of GPR103. […]
mutants. Data are presented as mean values ± SEM, normally n=3-5; dots), each performed in triplicate. b-d Cell-surface expression (b) and QRFP26-in-duced activation of GPR103 (c, d) were analyzed by the flow cytometry and the TGFα shedding assay, respectively. From the concentration–response curves (a), Emax (c) and ΔpEC50 (d) values relative to the wild type were calculated. Colors in the mutant bars indicate an expression level matching to that of titrated wild type. Statistical analyses were performed using the ordinary one-way ANOVA followed by Dunnett tests with the expression-matched […]

For orientation: EC50 means the concentration at which the effect is half-maximal. A high value points to weaker potency. In the case of TSGPLGNLAEELNGYSRKKGGFSFRF-NH2 [QRFP26], the Emax by setting is: (Exp. #1) 105.09 % WT; (Exp. #2) 97.15 % WT; (Exp. #3) 104.38 % WT; (mean, read-out: Emax) 102%; (n = 3, read-out: Emax) 106 ± 2.1%. Under “n = 3”, this substance gave an EC50 of 7.59 nM.
